Data as given in US20090082388A1 (ACADIA PHARMACEUTICALS INC., priority 2007, published 2009).

Legend:
[1] = Clearance from in vitro human microsomes; format: in vitro ADME; conditions: read-out: clearance rate from in vitro human microsomes
[2] = tested on: 31 of the 36 human monoaminergic receptors; experiment: Functional activity at human monoaminergic receptors; conditions: 5-HT1A, 1B, 1D, 1E, 1F, 2B, 3, 4, 6A, 7A; adrenergic α1A, α1B, α1D, α2A, α2B, β2; dopamine D1-D4; histamine H1-H3
[3] = target: dopamine receptors including the D2 and D4 receptors; experiment: Affinity to dopamine receptors; format: binding
[4] = tested on: mice receiving ICV infusion of amyloid β protein fragment (25-35) or saline (sham); experiment: Amphetamine-induced hyperactivity study with amyloid β protein; format: in vivo; conditions: pimavanserin 0.3 mg/kg, amphetamine 3 mg/kg, FIG. 8
Procedure: This study was conducted in acrylic chambers (42 cm×42 cm×30 cm) equipped with 16 infrared photobeams along each horizontal axis (front-to-back and side-to-side, from Accuscan Instruments, Inc. (Columbus, Ohio)). Subjects were mice receiving ICV infusion of amyloid β protein fragment (25-35) or ICV infusion of saline (sham) for 7-10 days.
An amphetamine-induced hyperactivity study was conducted on the subjects. Subjects were injected with amphetamine (3 mg/kg) or vehicle 15 minutes prior to entering motor activity chambers. Activity was measured as a total distance traveled (DT) in centimeters (cm) and was determined in 20 minute increments across a 60 minute session.
Activity was measured as a total distance traveled (DT) in centimeters (cm) and was determined in 20 minute increments across a 60 minute session.

[5] = tested on: mice with a deletion of the M1 muscarinic receptor (M1KO) or wild-type (WT) controls; experiment: Hyperactivity study with M1 knock-out mice; format: in vivo
Procedure: A linear regression analysis was then conducted to determine the theoretical dose that would produce a 50% reduction of activity (ED50) and 95% confidence interval. Mice had no prior exposure to the chambers and each dose combination was tested in separate groups of mice.

[6] = Half-life upon oral administration to humans; conditions: human, in vivo
[7] = tested on: C57 BK/6 mice; conditions: test phase, FIGS. 5 and 6
Procedure: Subjects were male, C57 BK/6 mice purchased from Harlan Laboratories, weighing 15-20 g upon arrival. Animals were housed 8 per cage with food and water available ad libitum. Animals were housed on a 12 hr light cycle (lights on 6 am) for 4-7 days prior to behavioral testing.
Novel object recognition (NOR) was conducted in a novel environment consisting of a white plastic tub measuring 45.7×33.7×19 cm. Prior to each trial the bottom of the tub was covered with a piece of plastic lined bench top paper. There were two sets of identical objects chosen so that when given an opportunity to explore, mice would evenly divide exploration time between the objects. “A” objects were yellow, ceramic, 12-sided ramekins measuring 4 cm high×7 cm diameter. “B” objects were 8×8×4 cm stainless steel, 4-sided ramekins.
At the beginning of each test day, animals were placed in groups of 6 into clean cages. […]
During the sample phase, two identical objects (“A” or “B”, objects described above) were placed into the NOR chamber. […] The time spent exploring at each position was recorded. Directly sniffing or touching the object was recorded as exploration. […]
The test phase was conducted one to two hours after the sample phase. […] The test sessions were recorded on video and scored by an observer blind to each subject's treatment condition. Any time spent directly sniffing or touching an object was counted as exploration. […]

[8] = tested on: amphetamine-induced hyperactivity in mice; experiment: Amphetamine-induced hyperactivity with tacrine or xanomeline; format: in vivo; conditions: amphetamine 3 mg/kg, pimavanserin 0.03 mg/kg where combined
Procedure: This study was conducted in acrylic chambers (42 cm×42 cm×30 cm) equipped with 16 infrared photobeams along each horizontal axis (front-to-back and side-to-side, from Accuscan Instruments, Inc., Columbus, Ohio). […] Vehicle or a drug (either tacrine or xanomeline) was injected 30 minutes prior to entering activity chambers. Amphetamine (3 mg/kg) was injected into mice 15 minutes prior to entering motor activity chambers. Mice had no prior exposure to the chambers and each dose combination was tested in separate groups of mice.
Activity was measured as total distance traveled (DT) in centimeters and was determined across a 15 minute session. Dose response curves were constructed for the drug in the presence of either vehicle or a fixed dose of pimavanserin. In order to generate dose-response curves, raw DT data were converted to percent inhibition, % MPI=((DT drug or drug combination−DT amphetamine control)/(DT vehicle control−DT amphetamine control))*100. A linear regression analysis was then conducted to determine the theoretical dose that would produce a 50% reduction of activity (ED50) and 95% confidence interval.

[9] = cited from earlier work

| SMILES | microsomal CLint [1] | functional activity (pEC50 or pKi) [2] | pKi to dopamine receptors including D2 and D4 [3] | distance traveled following amphetamine, amyloid β mice ([4]; amyloid β mice) | distance traveled following amphetamine, control mice ([4]; sham (control) mice) | amphetamine-induced activity, M1KO subjects ([5]; M1KO mice, amphetamine 3 mg/kg ip, FIG. 9) | amphetamine-induced activity, WT subjects ([5]; WT mice, amphetamine 3 mg/kg ip, FIG. 9) | percent inhibition of amphetamine-induced hyperactivity ([5]; as a function of pimavanserin dosage, FIG. 10) | locomotor activity, pimavanserin alone ([5]; no amphetamine, compared with vehicle controls, pimavanserin 0.03 or 0.3 mg/kg, FIG. 9) | half-life [6] | percent of time spent exploring a novel object [7] | total distance traveled ([8]; 15 minute session, FIGS. 1 and 3) | percent inhibition of amphetamine-induced hyperactivity ([8]; FIGS. 2 and 4) | patients with elevated liver transaminases [9] |
| --- | --- | --- | --- | --- | --- | --- | --- | --- | --- | --- | --- | --- | --- | --- |
| CC(C)COc1ccc(CNC(=O)N(Cc2ccc(F)cc2)C2CCN(C)CC2)cc1 [Pimavanserin, N-(1-methylpiperidin-4-yl)-N-(4-fluorophenylmethyl)-N′-(4-(2-methylpropyloxy)phenylmethyl)carbamide] | < 10 µL/min/mg | < 6 | < 6 | reversed the augmented locomotor response to amphetamine | did not reduce the hyperactivity induced by amphetamine | reversed the augmented amphetamine response | did not alter amphetamine-induced activity | increased the inhibition of amphetamine-induced hyperactivity | no significant effect on locomotor activity | ~2.29 days |  |  |  |  |
| Nc1c2c(nc3ccccc13)CCCC2 [tacrine] |  |  |  |  |  |  |  |  |  |  | also increased | total distance traveled decreased | greater inhibition of amphetamine-induced hyperactivity | about 30% |
